Measurements published in patent US20170340588A1, “MODULATION OF REGULATORY T CELLS VIA G-COUPLED PROTEIN RECEPTOR 43” (President and Fellows of Harvard College, priority 2013, published 2017).
Where two headings read alike, the source gives them in different places.

Legend:
[1] = Stability of SCFA mix in mouse water bottle over time; type: physicochemical; conditions: for SCFA mix in mouse water bottle over time, Day 1 / SCFA mix in mouse water bottle over time, Day 4 / SCFA mix in mouse water bottle over time, Day 7 / SCFA mix in mouse water bottle over time, Day 10 / SCFA mix in mouse water bottle over time, Day 14 / SCFA mix in mouse water bottle over time, Day 90: input 200 mM
Procedure: Mice were treated for 21 days with either sodium acetate (150 mM), sodium propionate (150 mM), sodium butyrate (100 mM) or a SCFA mix (67.5 mM acetate, 40 mM Butyrate, 25.9 mM Propionate) in the drinking water. In in vivo drinking water treatment experiments, control mice received pH and sodium-matched water. At the conclusion of the experiment mice were removed from isolators and processed immediately.

[2] = mouse, in vivo
Procedure: At the conclusion of the experiment mice were removed from isolators and processed immediately.
Cecal or small intestinal contents were collected immediately after animals were sacrificed and flash frozen in N2(1). Samples were mashed in 500 μl HPLC grade water and centrifuged at >14,000 x g, the resulting supernatant was then passed through a 0.22 μm syringe filter to remove bacterial cells and debris. Samples we then acidified with 1/10 volume of 0.01M H2SO4, heated and passed through a condenser to isolate volatile compounds within a sample. SCFA analyses were performed using an Agilent 1200 series HPLC and a Poroshell 120 SB C18 column (2.7 μm, 3.0×100mm) with guard column (Agilent Technologies). Sulfuric acid (0.01M) was used as the mobile phase. SCFA concentrations were weight corrected.

colonic Treg (cTreg) = assay: Antibiotic (vancomycin) treatment of SPF mice with or without SCFA; type: in vivo; conditions: SPF mice, vancomycin alone in drinking water
Procedure: Science 341: 1645 (2013). […] The crude cell suspension was loaded onto a 40%/90% Percoll (GE Healthcare) gradient and centrifuged at 720 x g for 25 min at room temperature with acceleration and brake turned off. LP lymphocytes were collected from the 40%/90% interface. Intracellular staining of the transcription factors Foxp3, Helios and T-bet was performed using the Foxp3 Fix/Perm Buffer Set (Biolegend). For detection of intracellular cytokines, cells were first stimulated for 4 h with 50 ng/ml PMA and 1 μg/ml ionomycin in the presence of Brefeldin A (All obtained from Sigma), followed by staining for surface markers. Cells were then fixed and permeabilized using the Foxp3 Fix/Perm Buffer Set (Biolegend) and stained for intracellular cytokines. The following antibodies were used: […] All antibodies were obtained from Biolegend unless otherwise noted. Flow cytometry was performed using LSRII and data were analyzed with FlowJo software (TreeStar, Inc.). Cell sorting was performed using a […] at the Dana-Farber Cancer Institute Flow Cytometry Core.

## CCCC(=O)O [Butyrate, butyric acid]
[1]
  SCFA mix in mouse water bottle over time, Input (Day 0): 200 mM
  SCFA mix in mouse water bottle over time, Day 1: 203.09 mM
  SCFA mix in mouse water bottle over time, Day 4: 202.85 mM
  SCFA mix in mouse water bottle over time, Day 7: 202.27 mM
  SCFA mix in mouse water bottle over time, Day 10: 202.69 mM
  SCFA mix in mouse water bottle over time, Day 14: 202.19 mM
  SCFA mix in mouse water bottle over time, Day 90: 38 mM
[2]; BALB/c, 2 weeks
  SCFA levels, cecal contents, SPF + B: 29.78 ± 6.202 µmol/g
[2]; BALB/c, 21 days
  SCFA levels, cecal contents, GF + B: 11.46 ± 1.46 µmol/g
  SCFA levels, cecal contents, GF + Mic: 20.6 ± 3.96 µmol/g
[2]
  SCFA levels, SPF SI: 7.183 ± 2.39 µmol/g
  SCFA levels, cecal contents, ASF: 16.89 ± 1.46 µmol/g
  SCFA levels, cecal contents, GF: 2.13 ± 0.598 µmol/g
  SCFA levels, cecal contents, SPF: 18.52 ± 4.92 µmol/g
[2]; 2 weeks
  SCFA levels, SPF SI + P: 6.45 ± 2.11 µmol/g
[2]; 4 weeks
  SCFA levels, cecal contents, SPF + Vanco: 1.04 ± 0.903 µmol/g

## CN[C@H](CC(C)C)C(=O)N[C@H]1C(=O)N[C@@H](CC(N)=O)C(=O)N[C@H]2C(=O)N[C@H]3C(=O)N[C@H](C(=O)N[C@H](C(=O)O)c4cc(O)cc(O)c4-c4cc3ccc4O)[C@H](O)c3ccc(c(Cl)c3)Oc3cc2cc(c3O[C@@H]2O[C@H](CO)[C@@H](O)[C@H](O)[C@H]2O[C@H]2C[C@](C)(N)[C@H](O)[C@H](C)O2)Oc2ccc(cc2Cl)[C@H]1O [vancomycin, reference compound]
Colonic Treg (cTreg)
  cTreg level: reduced

## CC(=O)O [Acetate, acetic acid]
[1]
  SCFA mix in mouse water bottle over time, Input (Day 0): 200 mM
  SCFA mix in mouse water bottle over time, Day 1: 195 mM
  SCFA mix in mouse water bottle over time, Day 4: 220.1 mM
  SCFA mix in mouse water bottle over time, Day 7: 192.2 mM
  SCFA mix in mouse water bottle over time, Day 10: 196.3 mM
  SCFA mix in mouse water bottle over time, Day 14: 202.5 mM
  SCFA mix in mouse water bottle over time, Day 90: 56.1 mM
[2]
  SCFA levels, SPF SI: 15.19 ± 9.2 µmol/g
  SCFA levels, SPF SI + P: 15.46 ± 3.69 µmol/g
  SCFA levels, cecal contents, ASF: 28.69 ± 8.32 µmol/g
  SCFA levels, cecal contents, GF: 2.82 ± 0.534 µmol/g
  SCFA levels, cecal contents, GF + A: 16.18 ± 4.65 µmol/g
  SCFA levels, cecal contents, GF + Mic: 20.83 ± 0.47 µmol/g
  SCFA levels, cecal contents, SPF: 40.66 ± 5.86 µmol/g
  SCFA levels, cecal contents, SPF + A: 53.95 ± 1.91 µmol/g
  SCFA levels, cecal contents, SPF + Vanco: 8.63 ± 1.73 µmol/g
